Data: the NIST ThermoML archive (doi:10.1021/je050333h)

Assay: cn = amount concentration of the nth substance listed, in mol/dm3
Details: 101 kPa, Liquid; for speed of sound: Sing-around technique in a fixed-path interferometer

CCCCC(CC)COC(=O)CC(C(=O)OCC(CC)CCCC)S(=O)(=O)[O-].[Na+] (stereo not given) [sodium bis(2-ethylhexyl) sulfosuccinate] + CC(C)CC(C)(C)C
Details	kinematic viscosity [m2/s]	mass density [kg/m3]	speed of sound [m/s]
293.15 K, c1 = 0.0993	8.03e-07	704.23	1103.5
293.15 K, c1 = 0.2006	9.05e-07	718.92	1104
293.15 K, c1 = 0.302	1.04e-06	736.65	1105.7
293.15 K, c1 = 0.4037	1.21e-06	754.54	1107.9
293.15 K, c1 = 0.5242	1.52e-06	775.5	1111.5
293.15 K, c1 = 0.6067	1.83e-06	794.1	1115.2
293.15 K, c1 = 0.7046	2.28e-06	812.69	1120.4
293.15 K, c1 = 0.8053	2.96e-06	829.38	1126.2
293.15 K, c1 = 0.9065	4.07e-06	847.23	1133.6
293.15 K, c1 = 1.012	5.97e-06	865.07	1142.4
298.15 K, c1 = 0.0987	7.58e-07	700.09	1082.4
298.15 K, c1 = 0.1994	8.56e-07	714.76	1083.1
298.15 K, c1 = 0.3003	9.87e-07	732.48	1085.1
298.15 K, c1 = 0.4017	1.14e-06	750.77	1087.3
298.15 K, c1 = 0.5213	1.42e-06	771.2	1091.2
298.15 K, c1 = 0.6034	1.67e-06	789.8	1095
298.15 K, c1 = 0.701	2.1e-06	808.51	1100.4
298.15 K, c1 = 0.8013	2.76e-06	825.19	1106.5
298.15 K, c1 = 0.902	3.73e-06	843	1113.8
298.15 K, c1 = 1.007	5.27e-06	860.81	1123
303.15 K, c1 = 0.0981	7.23e-07	695.93	1061.6
303.15 K, c1 = 0.1983	8.13e-07	710.7	1062.4
303.15 K, c1 = 0.2986	9.27e-07	728.39	1064.5
303.15 K, c1 = 0.3988	1.07e-06	745.5	1066.9
303.15 K, c1 = 0.5185	1.32e-06	767	1071.1
303.15 K, c1 = 0.6002	1.56e-06	785.6	1075
303.15 K, c1 = 0.6974	1.93e-06	804.41	1080.5
303.15 K, c1 = 0.7972	2.53e-06	820.98	1086.5
303.15 K, c1 = 0.8975	3.43e-06	838.76	1094.1
303.15 K, c1 = 1.002	4.77e-06	856.54	1103.7
313.15 K, c1 = 0.097	6.55e-07	687.78	1020.3
313.15 K, c1 = 0.1956	7.34e-07	700.9	1021.5
313.15 K, c1 = 0.2946	8.29e-07	718.5	1024
313.15 K, c1 = 0.3949	9.53e-07	738.2	1026.6
313.15 K, c1 = 0.5111	1.17e-06	756.1	1031.3
313.15 K, c1 = 0.5932	1.35e-06	776.5	1035.6
313.15 K, c1 = 0.6899	1.67e-06	795.7	1041.3
313.15 K, c1 = 0.7889	2.12e-06	812.51	1048.1
313.15 K, c1 = 0.8884	2.79e-06	830.24	1055.8
313.15 K, c1 = 0.9921	3.89e-06	847.98	1065.5
323.15 K, c1 = 0.0959	5.95e-07	680.26	979.8
323.15 K, c1 = 0.1937	6.66e-07	694.2	981.2
323.15 K, c1 = 0.2919	7.5e-07	712	984.1
323.15 K, c1 = 0.3904	8.59e-07	729.7	987.1
323.15 K, c1 = 0.505	1.04e-06	747	992.3
323.15 K, c1 = 0.5858	1.19e-06	766.8	996.8
323.15 K, c1 = 0.6822	1.47e-06	786.9	1002.8
323.15 K, c1 = 0.7807	1.83e-06	804.04	1009.9
323.15 K, c1 = 0.8792	2.35e-06	821.7	1018
323.15 K, c1 = 0.982	3.09e-06	839.35	1028
